From the supplement of paper PMC11061612 come the findings set out here.

What all share (test): combination Emax (second highest fraction inhibited in the dose matrix, 72 h); higher = more inhibition; extreme values may be limits of the assay
The subject of assay [1] is CAL-72 (Osteosarcoma). In short, it runs like this: (§1)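 Cell lines grown in DMEM/F12 or RPMI with 10% FBS were plated in 1536-well plates and held 24 hours at 37°C, 5% CO2 before 72 hours of exposure to two-drug dose matrices, with DMSO typically at 0.2%. CellTiter-Glo 2.0 luminescence gave viability, which was converted to inhibition. Vehicle wells were set to 0 and blank wells to 1. Combination Emax is the second-highest inhibition in the matrix, and Bliss excess is the observed combination effect minus the expected EA + EB − EA·EB, where EA and EB are the single-agent effects.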

The subject of assay [2] is ESS-1 (Other Solid Carcinomas). The method in brief:
as §1

The test system of assay [3] is YAPC (Pancreatic Carcinoma). The method in brief:
as §1

In assay [4] the test system is HH (T-Cell Non-Hodgkin's Lymphoma). The method in brief: as §1
The subject of assay [5] is TGBC1TKB (Biliary Tract Carcinoma). The method in brief: as §1
Assay [6] has as its system MPP-89 (Mesothelioma). In short, it runs like this: as §1
The test system of assay [7] is CAL-33 (Oral Cavity Carcinoma). In short, it runs like this: as §1
The test system of assay [8] is WSU-NHL (B-Cell Non-Hodgkin's Lymphoma). The method in brief: as §1
Assay [9] relates to NCI-H209 (Small Cell Lung Carcinoma). In short, it runs like this:
as §1

Assay [10] relates to SAS (Oral Cavity Carcinoma). The method in brief:
as §1

The subject of assay [11] is L-428 (Hodgkin's Lymphoma). The method in brief:
as §1

The test system of assay [12] is SW1573 (Lung Adenocarcinoma). The method in brief:
as §1

Assay [13] relates to KMRC-20 (Kidney Carcinoma). The method in brief:
as §1

The test system of assay [14] is SW1710 (Bladder Carcinoma). The method in brief:
as §1

For assay [15], the system named is HuH-7 (Hepatocellular Carcinoma). The method in brief:
as §1

The subject of assay [16] is LCLC-97TM1 (Non-Small Cell Lung Carcinoma). In short, it runs like this:
as §1

For assay [17], the system named is BE2-M17 (Neuroblastoma). In short, it runs like this: as §1
Assay [18] concerns Hs-746T (Gastric Carcinoma). In short, it runs like this: as §1
For assay [19], the system named is LNZTA3WT4 (Low Grade Glioma). In short, it runs like this:
as §1

Assay [20] has as its system BPH-1 (Non-Cancerous). In short, it runs like this: as §1

For `Cc1c2c(nn1C)CSCc1cc(n(C)n1)CSc1cc(c3ccccc3c1)OCCCc1c(C(=O)O)n(C)c3c-2c(Cl)ccc13` [AZD5991] + Cc1cc2ncnn2cc1Nc1ncc2c(n1)n(C1CCOCC1)c(=O)n2C [AZD7648] (first compound max 1 µM, 7x7, partner max 10 µM), the “combination Emax” value came to 0.523 in assay [1]; 0.407 in assay [2]; 0.248 in assay [3]; 0.71 in [4]; 0.319 in [5]; 0.343 in [6]. For the same compound, the “combination Emax” value came out at 0.302 in assay [7]; 0.952 in assay [8]; 0.431 in [9]; 0.286 in [10]; 0.251 in assay [11]; 0.19 in [12]. Besides, the “combination Emax” value worked out at 0.295 in [13]; 0.177 in [14]; 0.185 in [15]; 0.385 in [16]; 0.9 in assay [17]; 0.319 in [18]. The “combination Emax” value in assay [19] was found to be 0.318; in assay [20], 0.409.

In the case of `CS(=O)(=O)CCNCc1ccc(-c2ccc3ncnc(Nc4ccc(OCc5cccc(F)c5)c(Cl)c4)c3c2)o1` [Lapatinib] + C[C@@H](Oc1cc(-c2cnn(C3CCNCC3)c2)cnc1N)c1c(Cl)ccc(F)c1Cl [Crizotinib] (first compound max 10 µM, 7x7, partner max 10 µM), the “combination Emax” value in assay [1] is 0.906; in assay [2] it was 0.917; in assay [3], 0.636; in [4], 0.327; in [5] it was 0.616; in [6], 0.696. Moreover, the “combination Emax” value was 0.989 in [7]; 0.966 in [8]; 0.927 in assay [9]; 0.825 in [10]; 0.913 in assay [11]; 0.462 in [12]. Besides, the “combination Emax” value came to 0.916 in assay [13]; 0.846 in assay [14]; 0.925 in assay [15]; 0.979 in assay [16]; 0.868 in assay [17]; 0.876 in [18]. Moreover, the entries for the “combination Emax” value in assay [19] and in assay [20] were 0.872 and 0.949, respectively.

Regarding `CC1(C)CCC(CN2CCN(c3ccc(C(=O)NS(=O)(=O)c4ccc(NCC5CCOCC5)c([N+](=O)[O-])c4)c(Oc4cnc5[nH]ccc5c4)c3)CC2)=C(c2ccc(Cl)cc2)C1` [Venetoclax] + Cc1cc2ncnn2cc1Nc1ncc2c(n1)n(C1CCOCC1)c(=O)n2C [AZD7648] (first compound max 1 µM, 7x7, partner max 10 µM), the “combination Emax” value in assay [1] came out at 0.643; in [2] it was 0.886; in [3], 0.2; in assay [4], 0.273; in assay [5], 0.297; in assay [6], 0.418. For the same compound, the “combination Emax” value in assay [7] stood at 0.329; in assay [8] it was 0.869; in assay [9], 0.642; in [10], 0.256; in assay [11], 0.215; in assay [12], 0.144. Further, the “combination Emax” value came to 0.288 in assay [13]; 0.248 in [14]; 0.221 in assay [15]; 0.2 in [16]; 0.276 in assay [17]; 0.226 in [18]. The “combination Emax” value in [19] was 0.385; in [20], 0.232.

With `CN(C)CCCOc1ccc(-c2ccc3ncc4c(c3c2)n(C2CCOCC2)c(=O)n4C)cn1` [AZD0156] + CCN(CCO)CCCOc1ccc2c(Nc3cc(CC(=O)Nc4cccc(F)c4)[nH]n3)ncnc2c1 [AZD2811] (first compound max 1 µM, 7x7, partner max 1 µM), the “combination Emax” value is 0.286 in [1]; 0.606 in assay [2]; 0.137 in assay [3]; 0.151 in assay [4]; 0.0674 in assay [5]; 0.105 in [6]. For the same compound, the “combination Emax” value in assay [7] is 0.71; in [8] it was 0.879; in assay [9] it was 0.552; in assay [10] it was 0.0904; in [11], 0.187; in [12] it was 0.168. Moreover, the “combination Emax” value in [13] was determined as 0.128; in assay [14], 0.0832; in [15], 0.0893; in assay [16], 0.371; in assay [17] it was 0.411; in assay [18], 0.155. In addition, the “combination Emax” value in [19] is 0.105; in assay [20], 0.459.

Take `Cc1c2c(nn1C)CSCc1cc(n(C)n1)CSc1cc(c3ccccc3c1)OCCCc1c(C(=O)O)n(C)c3c-2c(Cl)ccc13` [AZD5991] + C=CCn1c(=O)c2cnc(Nc3ccc(N4CCN(C)CC4)cc3)nc2n1-c1cccc(C(C)(C)O)n1 [AZD1775] (first compound max 1 µM, partner max 1 µM): the “combination Emax” value in [1] stood at 0.782; in [2], 0.988; in assay [3], 0.416; in [4] it was 0.77; in assay [5] it was 0.303; in assay [6] it was 0.477. For the same compound, the “combination Emax” value stood at 0.802 in [7]; 0.954 in [8]; 0.95 in assay [9]; 0.625 in assay [10]; 0.82 in assay [11]; 0.44 in assay [12]. Moreover, the “combination Emax” value in [13] turned out to be 0.638; in assay [14], 0.344; in [15], 0.448; in [16] it was 0.948; in assay [17], 0.986; in assay [18] it was 0.605. The “combination Emax” value stood at 0.823 in [19] and 0.525 in assay [20].

With `NC1(C(=O)N[C@@H](CCO)c2ccc(Cl)cc2)CCN(c2ncnc3[nH]ccc23)CC1` [Capivasertib] + Cn1cnc2c(F)c(Nc3ccc(Br)cc3Cl)c(C(=O)NOCCO)cc21 [Selumetinib] (first compound max 10 µM, 7x7, partner max 10 µM), the “combination Emax” value in [1] amounted to 0.305; in assay [2], 0.526; in [3], 0.346; in [4], 0.246; in [5], 0.475; in assay [6] it was 0.386. Moreover, the “combination Emax” value in assay [7] is 0.789; in [8], 0.92; in assay [9], 0.163; in assay [10], 0.615; in assay [11], 0.126; in [12], 0.362. The “combination Emax” value in assay [13] amounted to 0.392; in assay [14], 0.409; in assay [15], 0.45; in [16], 0.849; in assay [17], 0.654; in assay [18], 0.691. Further, the “combination Emax” value in assay [19] turned out to be 0.445; in assay [20] it was 0.716.
